Here are results for two molecules from ChEMBL document CHEMBL5523739, “NN1213 - A Potent, Long-Acting, and Selective Analog of Human Amylin” (J Med Chem, 2024).

For experiment [1], the species on record is Homo sapiens. As to the kind of experiment: Selectivity ratio of IC50 for human CTR expressed in Baby hamster kidney cell membrane to IC50 for human AMY3R complex of CTR/RAMP3 expressed in Baby hamster kidney cell membrane. The class given is cell-based.
For experiment [2], the species on record is Homo sapiens. As to the kind of experiment: Selectivity ratio of EC50 for human CTR expressed in Baby hamster kidney cells to EC50 for human AMY3R complex of CTR/RAMP3 expressed in Baby hamster kidney cells. The class given is cell-based.
The species entered for experiment [3] is Rattus norvegicus. In words: Selectivity ratio of IC50 for rat CTR expressed in Baby hamster kidney cell membrane to IC50 for rat AMY3R complex of CTR/RAMP3 expressed in Baby hamster kidney cell membrane. The class given is cell-based.
For experiment [4], the species on record is Rattus norvegicus. In words: Selectivity ratio of EC50 for rat CTR expressed in Baby hamster kidney cells to EC50 for rat AMY3R complex of CTR/RAMP3 expressed in Baby hamster kidney cells. In kind it is cell-based.
Experiment [5] has as its system Rattus norvegicus. As to the kind of experiment: Appetite suppressing activity in rat assessed as reduction in food intake at 30 nmol/kg, sc measured upto 24 hrs relative to control. In kind it is functional. Set-up: scale not given: the % may be the effect or the level left.
The subject of experiment [6] is Rattus norvegicus. As to the kind of experiment: Appetite suppressing activity in rat assessed as reduction in food intake at 30 nmol/kg, sc measured for 24 to 48 hrs relative to control. The class given is functional. Set-up: scale not given: the % may be the effect or the level left. The following applies: time 24-48 hrs.

Molecules are shown by their SMILES.

Consider `CC[C@H](C)[C@H](NC(=O)[C@H](C)NC(=O)CNC(=O)[C@H](Cc1ccccc1)NC(=O)[C@H](CC(N)=O)NC(=O)[C@@H]1CCCN1C(=O)[C@H](CO)NC(=O)[C@H](CO)NC(=O)[C@H](Cc1c[nH]cn1)NC(=O)[C@H](CCCNC(=N)N)NC(=O)[C@H](CC(C)C)NC(=O)[C@H](Cc1ccccc1)NC(=O)[C@H](CC(=O)O)NC(=O)[C@H](C)NC(=O)[C@H](CC(C)C)NC(=O)[C@H](CCCNC(=N)N)NC(=O)[C@H](CCC(N)=O)NC(=O)[C@@H](NC(=O)[C@H](C)NC(=O)[C@@H]1CSSC[C@H](NC(=O)[C@@H](N)CCCCN)C(=O)N[C@@H](CC(N)=O)C(=O)N[C@@H]([C@@H](C)O)C(=O)N[C@@H](C)C(=O)N[C@@H]([C@@H](C)O)C(=O)N1)[C@@H](C)O)C(=O)N1CCC[C@H]1C(=O)N[C@@H](CO)C(=O)N[C@H](CO)C(=O)N[C@H](C(=O)N[C@@H](CC(N)=O)C(=O)N[C@H](C(=O)NCC(=O)N[C@@H](CO)C(=O)N[C@@H](CC(=O)O)C(=O)N[C@H](C(=O)N[C@@H](Cc1ccc(O)cc1)C(N)=O)[C@@H](C)O)C(C)C)[C@@H](C)O`, for which the values for the Ratio IC50 in the experiment listed under Homo sapiens [1] and in the experiment filed under Rattus norvegicus [3] were 55 and 447, respectively. Also, the Ratio EC50 in the experiment listed under Homo sapiens [2] was 15; in the experiment listed under Rattus norvegicus [4], 1340.

As for `CC[C@H](C)[C@H](NC(=O)[C@H](C)NC(=O)CNC(=O)[C@H](Cc1ccccc1)NC(=O)[C@H](CC(N)=O)NC(=O)[C@@H]1CCCN1C(=O)[C@H](CO)NC(=O)[C@H](CO)NC(=O)[C@H](Cc1c[nH]cn1)NC(=O)[C@H](CCCNC(=N)N)NC(=O)[C@H](CC(C)C)NC(=O)[C@H](Cc1ccccc1)NC(=O)[C@H](CC(=O)O)NC(=O)[C@H](C)NC(=O)[C@H](CC(C)C)NC(=O)[C@H](CCCNC(=N)N)NC(=O)[C@H](CCC(N)=O)NC(=O)[C@@H](NC(=O)[C@H](C)NC(=O)[C@@H]1CSSC[C@H](NC(=O)[C@@H](N)CCCCN)C(=O)N[C@@H](CC(N)=O)C(=O)N[C@@H]([C@@H](C)O)C(=O)N[C@@H](C)C(=O)N[C@@H]([C@@H](C)O)C(=O)N1)[C@@H](C)O)C(=O)N1CCC[C@H]1C(=O)N[C@@H](CO)C(=O)N[C@@H](CO)C(=O)N[C@H](C(=O)N[C@@H](CC(N)=O)C(=O)N[C@H](C(=O)NCC(=O)N[C@@H](CO)C(=O)N[C@@H](CC(=O)O)C(=O)N[C@H](C(=O)N[C@@H](Cc1ccc(O)cc1)C(N)=O)[C@@H](C)O)C(C)C)[C@@H](C)O`, the Activity came out at 72% in the experiment on Rattus norvegicus [5] and 62% in the experiment on Rattus norvegicus [6].
